In ChEMBL document CHEMBL5036306 (J Med Chem, 2021):
Calls of active or inactive are those of the source. The rule behind the calls is not given here.

Tests used:
[1] = biological target: T1, Protein deacetylase HDAC6 (Homo sapiens, UniProt Q9UBN7); experiment: Inhibition of recombinant HDAC6 (unknown origin) using Boc-Lys(acetyl)-AMC as substrate preincubated for 1 hr followed by substrate addition and measured after 2 hrs by fluorescence based assay
T1 sequence (Q9UBN7 whole entry): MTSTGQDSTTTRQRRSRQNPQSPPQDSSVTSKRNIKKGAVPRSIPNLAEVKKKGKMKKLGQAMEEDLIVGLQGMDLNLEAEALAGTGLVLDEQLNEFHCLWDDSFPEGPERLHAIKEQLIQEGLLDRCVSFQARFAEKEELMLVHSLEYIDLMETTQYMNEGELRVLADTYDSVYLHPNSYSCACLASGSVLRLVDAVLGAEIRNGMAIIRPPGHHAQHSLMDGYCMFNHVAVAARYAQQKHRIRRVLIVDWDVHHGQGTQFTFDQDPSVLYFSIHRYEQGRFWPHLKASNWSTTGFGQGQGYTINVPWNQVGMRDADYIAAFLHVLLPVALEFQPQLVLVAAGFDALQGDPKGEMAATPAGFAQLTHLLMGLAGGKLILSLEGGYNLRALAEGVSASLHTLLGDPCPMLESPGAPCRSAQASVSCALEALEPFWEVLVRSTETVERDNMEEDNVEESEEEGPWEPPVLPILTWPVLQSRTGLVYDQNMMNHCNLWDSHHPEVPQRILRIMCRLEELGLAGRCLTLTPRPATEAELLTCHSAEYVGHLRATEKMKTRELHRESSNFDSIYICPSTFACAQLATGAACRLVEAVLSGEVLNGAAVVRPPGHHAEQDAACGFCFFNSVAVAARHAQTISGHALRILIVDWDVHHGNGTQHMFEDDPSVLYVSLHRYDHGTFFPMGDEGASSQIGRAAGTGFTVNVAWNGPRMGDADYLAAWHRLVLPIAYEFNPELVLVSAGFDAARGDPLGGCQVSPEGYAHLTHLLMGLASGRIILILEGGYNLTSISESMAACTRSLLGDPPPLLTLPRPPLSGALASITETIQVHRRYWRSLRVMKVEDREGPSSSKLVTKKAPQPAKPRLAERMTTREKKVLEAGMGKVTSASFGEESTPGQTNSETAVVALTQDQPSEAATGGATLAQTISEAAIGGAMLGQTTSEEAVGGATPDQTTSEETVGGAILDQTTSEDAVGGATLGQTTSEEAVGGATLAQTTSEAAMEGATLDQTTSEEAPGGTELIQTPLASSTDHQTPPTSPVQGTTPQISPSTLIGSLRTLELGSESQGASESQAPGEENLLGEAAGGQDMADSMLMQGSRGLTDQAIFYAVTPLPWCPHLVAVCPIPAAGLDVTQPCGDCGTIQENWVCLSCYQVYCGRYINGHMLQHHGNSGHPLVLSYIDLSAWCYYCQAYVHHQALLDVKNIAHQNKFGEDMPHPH

[2] = Antioxidant activity assessed as DPPH radical scavenging activity incubated for 30 mins under dark condition by microplate reader based assay; type: functional
Homo sapiens [3] = species: Homo sapiens; experiment: Selectivity ratio of IC50 for recombinant HDAC9 (unknown origin) to IC50 for recombinant HDAC6 (unknown origin)
Histone deacetylase 3 = Histone deacetylase 3 (Homo sapiens, UniProt O15379); experiment: Inhibition of recombinant HDAC3 (unknown origin) using Boc-Lys(acetyl)-AMC as substrate preincubated for 1 hr followed by substrate addition and measured after 2 hrs by fluorescence based assay
Histone deacetylase 9 = Histone deacetylase 9 (Homo sapiens, UniProt Q9UKV0); experiment: Inhibition of recombinant HDAC9 (unknown origin) using Boc-Lys(trifluoroacetyl)-AMC as substrate pre-incubated for 1 hr followed by substrate addition and measured after 2 hrs by fluorescence based assay
Histone deacetylase 1 = Histone deacetylase 1 (Homo sapiens, UniProt Q13547); experiment: Inhibition of recombinant HDAC1 (unknown origin) using Boc-Lys(Ac)-AMC as substrate pre-incubated for 1 hr followed by substrate addition and measured after 2 hrs by fluorescence based assay
[4] = Neurotoxicity in mouse HT-22 cells assessed as cell survival at 10 uM incubated for 48 hrs by MTT assay; type: cell-based; settings: ht-22, 48 h, 10 µM
Histone deacetylase 8 = biological target: T2, Histone deacetylase 8 (Homo sapiens, UniProt Q9BY41); experiment: Inhibition of recombinant HDAC8 (unknown origin) using Boc-Lys(trifluoroacetyl)-AMC as substrate pre-incubated for 1 hr followed by substrate addition and measured after 2 hrs by fluorescence based assay
T2 sequence (Q9BY41 whole entry): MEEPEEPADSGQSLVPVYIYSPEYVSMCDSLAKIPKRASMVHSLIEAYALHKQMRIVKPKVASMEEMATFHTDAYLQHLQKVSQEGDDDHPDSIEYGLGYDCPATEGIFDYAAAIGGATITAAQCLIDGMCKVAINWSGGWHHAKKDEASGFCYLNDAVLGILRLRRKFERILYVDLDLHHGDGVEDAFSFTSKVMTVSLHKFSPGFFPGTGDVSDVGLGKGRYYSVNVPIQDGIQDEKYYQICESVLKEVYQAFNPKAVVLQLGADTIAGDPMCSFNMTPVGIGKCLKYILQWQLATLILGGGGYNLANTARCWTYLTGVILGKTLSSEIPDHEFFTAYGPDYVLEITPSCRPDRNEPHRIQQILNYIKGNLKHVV

[5] = Metal chelating activity assessed as Fe2+ -ferrozoine complex formation at 10 to 200 uM preincubated for 2 mins followed by ferrozine addition and further incubated for 10 mins by microplate reader based assay; settings: dose 10-200 µM, time 12.0 min
Homo sapiens [6] = species: Homo sapiens; experiment: Selectivity ratio of IC50 for recombinant HDAC3 (unknown origin) to IC50 for recombinant HDAC6 (unknown origin)
Homo sapiens [7] = species: Homo sapiens; experiment: Selectivity ratio of IC50 for recombinant HDAC1 (unknown origin) to IC50 for recombinant HDAC6 (unknown origin)
Homo sapiens [8] = species: Homo sapiens; experiment: Selectivity ratio of IC50 for recombinant HDAC8 (unknown origin) to IC50 for recombinant HDAC6 (unknown origin)

Chain of Histone deacetylase 1 (Q13547 whole entry): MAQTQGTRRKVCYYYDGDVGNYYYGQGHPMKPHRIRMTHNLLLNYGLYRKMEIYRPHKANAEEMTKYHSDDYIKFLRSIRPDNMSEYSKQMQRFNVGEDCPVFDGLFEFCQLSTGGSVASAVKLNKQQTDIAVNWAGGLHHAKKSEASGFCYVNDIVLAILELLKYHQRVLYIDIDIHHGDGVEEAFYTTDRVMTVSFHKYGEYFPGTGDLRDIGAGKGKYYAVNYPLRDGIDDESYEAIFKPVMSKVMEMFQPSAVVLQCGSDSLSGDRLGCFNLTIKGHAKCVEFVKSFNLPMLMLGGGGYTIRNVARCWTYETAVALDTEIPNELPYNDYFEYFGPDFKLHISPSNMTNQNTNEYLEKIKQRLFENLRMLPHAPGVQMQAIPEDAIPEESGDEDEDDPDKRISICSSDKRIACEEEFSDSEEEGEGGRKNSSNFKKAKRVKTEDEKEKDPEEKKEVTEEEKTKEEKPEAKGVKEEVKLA
Chain of Histone deacetylase 3 (O15379 whole entry): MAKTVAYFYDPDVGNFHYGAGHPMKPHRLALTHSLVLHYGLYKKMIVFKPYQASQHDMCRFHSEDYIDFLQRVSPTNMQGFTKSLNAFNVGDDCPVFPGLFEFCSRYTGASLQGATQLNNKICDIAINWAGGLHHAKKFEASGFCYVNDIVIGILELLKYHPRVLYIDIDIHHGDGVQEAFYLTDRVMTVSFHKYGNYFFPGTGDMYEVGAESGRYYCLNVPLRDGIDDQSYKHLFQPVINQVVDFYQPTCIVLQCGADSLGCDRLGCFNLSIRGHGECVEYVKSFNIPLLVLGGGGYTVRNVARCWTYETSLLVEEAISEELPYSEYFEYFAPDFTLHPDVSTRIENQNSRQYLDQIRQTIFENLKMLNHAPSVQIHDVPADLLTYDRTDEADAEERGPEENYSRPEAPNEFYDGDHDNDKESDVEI
Chain of Histone deacetylase 9 (Q9UKV0 whole entry): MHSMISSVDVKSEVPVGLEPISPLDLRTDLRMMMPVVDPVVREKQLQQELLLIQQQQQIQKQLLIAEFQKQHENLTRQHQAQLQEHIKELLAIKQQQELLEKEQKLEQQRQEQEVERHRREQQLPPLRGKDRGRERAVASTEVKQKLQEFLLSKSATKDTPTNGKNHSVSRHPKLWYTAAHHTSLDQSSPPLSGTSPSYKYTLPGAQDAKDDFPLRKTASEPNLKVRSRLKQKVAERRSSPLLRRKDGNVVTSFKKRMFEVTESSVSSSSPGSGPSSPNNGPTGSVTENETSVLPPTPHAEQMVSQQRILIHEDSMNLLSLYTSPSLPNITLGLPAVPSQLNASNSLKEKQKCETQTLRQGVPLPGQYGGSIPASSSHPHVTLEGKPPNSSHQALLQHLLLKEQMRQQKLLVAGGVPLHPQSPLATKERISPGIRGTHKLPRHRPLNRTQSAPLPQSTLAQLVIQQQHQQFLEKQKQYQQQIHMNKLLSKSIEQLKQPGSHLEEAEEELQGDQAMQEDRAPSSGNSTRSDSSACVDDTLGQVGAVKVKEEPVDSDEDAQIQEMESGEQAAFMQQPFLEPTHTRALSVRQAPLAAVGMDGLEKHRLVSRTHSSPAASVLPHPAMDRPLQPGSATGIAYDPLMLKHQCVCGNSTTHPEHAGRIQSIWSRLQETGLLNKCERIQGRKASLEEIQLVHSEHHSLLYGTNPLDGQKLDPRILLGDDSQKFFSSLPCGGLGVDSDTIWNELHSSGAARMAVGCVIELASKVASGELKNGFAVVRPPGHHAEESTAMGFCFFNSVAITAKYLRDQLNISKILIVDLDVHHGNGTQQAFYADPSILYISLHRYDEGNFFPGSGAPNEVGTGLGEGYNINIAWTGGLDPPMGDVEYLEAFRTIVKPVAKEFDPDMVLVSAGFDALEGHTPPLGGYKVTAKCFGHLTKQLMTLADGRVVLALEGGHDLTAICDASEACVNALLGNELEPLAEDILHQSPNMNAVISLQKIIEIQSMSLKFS

| IC50 [1] | EC50 [2] | Ratio IC50 (Homo sapiens [3]) | IC50 (Histone deacetylase 3) | IC50 (Histone deacetylase 9) | IC50 (Histone deacetylase 1) | IC50 (Histone deacetylase 8) | Activity [5] | Ratio IC50 (Homo sapiens [6]) | Ratio IC50 (Homo sapiens [7]) | Ratio IC50 (Homo sapiens [8]) | Compound | Activity [4] |
| --- | --- | --- | --- | --- | --- | --- | --- | --- | --- | --- | --- | --- |
| 30.7 nM | 10800 nM | > 326 | 1610 nM | > 10000 nM | 771 nM | 3590 nM | Active | 53 | 25 | 117 | COc1ccc2[nH]cc(CCN(Cc3ccc(C(=O)NO)cc3)C(=O)/C=C/c3ccc(O)c(OC)c3)c2c1 | Non-Toxic |
| 11.2 nM | 56300 nM | 32 | 641 nM | 362 nM | 262 nM | 838 nM | Active | 57 | 23 | 75 | COc1ccc2c(c1)c(CCNC(C)=O)cn2Cc1ccc(C(=O)NO)cc1 | Toxic |
